{"source": "ChEMBL document CHEMBL3885861", "about": "“Open TG-GATES”", "species": "Rattus norvegicus", "test": "Open TG-GATES - Regimen: Daily Repeat", "type": "toxicity, organism-based, Sprague-Dawley", "set-up": "regimen Daily Repeat, gender Male, age 6 weeks", "conditions": "in vivo, po, 100 mg/kg, route gavage, dose level High; for APTT / Bas / Eos / Fbg / Hb / Ht / Lym / MCH / MCHC / MCV / Mono / Neu / PT / Plat / RBC / Ret / WBC: tissue Blood", "key": {"[1]": {"conditions": "72 h, tissue Plasma, time 3 day"}}}
{"smiles": "CN(CCOc1ccc(CC2SC(=O)NC2=O)cc1)c1ccccn1.O=C(O)/C=C\\C(=O)O", "note": "(configuration not stated) [ROSIGLITAZONE MALEATE]", "values": [{"measurement": "TERMINAL_BW", "setting": "72 h, time 3 day", "value": 241.9, "unit": "g"}, {"measurement": "APTT", "setting": "72 h, time 3 day", "value": 16.1, "unit": "s"}, {"measurement": "Bas", "setting": "72 h, time 3 day", "value": 0, "unit": "%"}, {"measurement": "Eos", "setting": "72 h, time 3 day", "value": 1, "unit": "%"}, {"measurement": "Fbg", "setting": "72 h, time 3 day", "value": 214, "unit": "mg/dL"}, {"measurement": "Hb", "setting": "72 h, time 3 day", "value": 12, "unit": "g/dL"}, {"measurement": "Ht", "setting": "72 h, time 3 day", "value": 36.4, "unit": "%"}, {"measurement": "Lym", "setting": "72 h, time 3 day", "value": 73.4, "unit": "%"}, {"measurement": "MCH", "setting": "72 h, time 3 day", "value": 21.1, "unit": "pg"}, {"measurement": "MCHC", "setting": "72 h, time 3 day", "value": 33, "unit": "%"}, {"measurement": "MCV", "setting": "72 h, time 3 day", "value": 63.8, "unit": "fL"}, {"measurement": "Mono", "setting": "72 h, time 3 day", "value": 7.2, "unit": "%"}, {"measurement": "Neu", "setting": "72 h, time 3 day", "value": 19.2, "unit": "%"}, {"measurement": "PT", "setting": "72 h, time 3 day", "value": 11.7, "unit": "s"}, {"measurement": "Plat", "setting": "72 h, time 3 day", "value": 122, "unit": "x10_4/uL"}, {"measurement": "RBC", "setting": "72 h, time 3 day", "value": 570.8, "unit": "x10_4/ul"}, {"measurement": "Ret", "setting": "72 h, time 3 day", "value": 7.7, "unit": "%"}, {"measurement": "WBC", "setting": "72 h, time 3 day", "value": 111.2, "unit": "x10_2/uL"}, {"measurement": "KIDNEY_TOTAL", "setting": "72 h, tissue Kidney, time 3 day", "value": 0.7, "unit": "g"}, {"measurement": "LIVER", "setting": "72 h, tissue Liver, time 3 day", "value": 12.3, "unit": "g"}, {"measurement": "A/G", "setting": "[1]", "value": 2.5}, {"measurement": "ALP", "setting": "[1]", "value": 1258, "unit": "IU/L"}, {"measurement": "ALT", "setting": "[1]", "value": 44.4, "unit": "IU/L"}, {"measurement": "AST", "setting": "[1]", "value": 74.2, "unit": "IU/L"}, {"measurement": "BUN", "setting": "[1]", "value": 17.2, "unit": "mg/dL"}, {"measurement": "CRE", "setting": "[1]", "value": 0.2, "unit": "mg/dL"}, {"measurement": "Ca", "setting": "[1]", "value": 11.4, "unit": "mg/dL"}, {"measurement": "Cl", "setting": "[1]", "value": 106.2, "unit": "meq/L"}, {"measurement": "DBIL", "setting": "[1]", "value": 0.01, "unit": "mg/dL"}, {"measurement": "GLC", "setting": "[1]", "value": 179.8, "unit": "mg/dL"}, {"measurement": "IP", "setting": "[1]", "value": 8.1, "unit": "mg/dL"}, {"measurement": "K", "setting": "[1]", "value": 4.1, "unit": "meq/L"}, {"measurement": "LDH", "setting": "[1]", "value": 115.6, "unit": "IU/L"}, {"measurement": "Na", "setting": "[1]", "value": 141.8, "unit": "meq/L"}, {"measurement": "PL", "setting": "[1]", "value": 142.2, "unit": "mg/dL"}, {"measurement": "RALB", "setting": "[1]", "value": 3.8, "unit": "g/dL"}, {"measurement": "TBIL", "setting": "[1]", "value": 0.034, "unit": "mg/dL"}, {"measurement": "TC", "setting": "[1]", "value": 77.6, "unit": "mg/dL"}, {"measurement": "TG", "setting": "[1]", "value": 48, "unit": "mg/dL"}, {"measurement": "TP", "setting": "[1]", "value": 5.4, "unit": "g/dL"}, {"measurement": "gamma-GTP", "setting": "[1]", "value": 0, "unit": "IU/L"}, {"measurement": "TERMINAL_BW", "setting": "[…], time 7 day", "value": 286.2, "unit": "g"}, {"measurement": "TERMINAL_BW", "setting": "[…], time 14 day", "value": 351.2, "unit": "g"}, {"measurement": "TERMINAL_BW", "setting": "[…], time 28 day", "value": 428.4, "unit": "g"}, {"measurement": "APTT", "setting": "[…], time 7 day", "value": 16.1, "unit": "s"}, {"measurement": "Bas", "setting": "[…], time 7 day", "value": 0, "unit": "%"}, {"measurement": "Eos", "setting": "[…], time 7 day", "value": 1.2, "unit": "%"}, {"measurement": "Fbg", "setting": "[…], time 7 day", "value": 195.8, "unit": "mg/dL"}, {"measurement": "Hb", "setting": "[…], time 7 day", "value": 11.6, "unit": "g/dL"}, {"measurement": "Ht", "setting": "[…], time 7 day", "value": 35.3, "unit": "%"}, {"measurement": "Lym", "setting": "[…], time 7 day", "value": 74.6, "unit": "%"}, {"measurement": "MCH", "setting": "[…], time 7 day", "value": 21.8, "unit": "pg"}, {"measurement": "MCHC", "setting": "[…], time 7 day", "value": 32.8, "unit": "%"}, {"measurement": "MCV", "setting": "[…], time 7 day", "value": 66.4, "unit": "fL"}, {"measurement": "Mono", "setting": "[…], time 7 day", "value": 9.2, "unit": "%"}, {"measurement": "Neu", "setting": "[…], time 7 day", "value": 15.4, "unit": "%"}, {"measurement": "PT", "setting": "[…], time 7 day", "value": 12.2, "unit": "s"}, {"measurement": "Plat", "setting": "[…], time 7 day", "value": 111.4, "unit": "x10_4/uL"}, {"measurement": "RBC", "setting": "[…], time 7 day", "value": 530.8, "unit": "x10_4/ul"}, {"measurement": "Ret", "setting": "[…], time 7 day", "value": 7.7, "unit": "%"}, {"measurement": "WBC", "setting": "[…], time 7 day", "value": 99, "unit": "x10_2/uL"}, {"measurement": "APTT", "setting": "[…], time 14 day", "value": 16.1, "unit": "s"}, {"measurement": "Bas", "setting": "[…], time 14 day", "value": 0, "unit": "%"}, {"measurement": "Eos", "setting": "[…], time 14 day", "value": 1, "unit": "%"}, {"measurement": "Fbg", "setting": "[…], time 14 day", "value": 227, "unit": "mg/dL"}, {"measurement": "Hb", "setting": "[…], time 14 day", "value": 12.8, "unit": "g/dL"}, {"measurement": "Ht", "setting": "[…], time 14 day", "value": 38.9, "unit": "%"}, {"measurement": "Lym", "setting": "[…], time 14 day", "value": 70.8, "unit": "%"}, {"measurement": "MCH", "setting": "[…], time 14 day", "value": 20.8, "unit": "pg"}, {"measurement": "MCHC", "setting": "[…], time 14 day", "value": 32.8, "unit": "%"}, {"measurement": "MCV", "setting": "[…], time 14 day", "value": 63.4, "unit": "fL"}, {"measurement": "Mono", "setting": "[…], time 14 day", "value": 10.4, "unit": "%"}, {"measurement": "Neu", "setting": "[…], time 14 day", "value": 17.6, "unit": "%"}, {"measurement": "PT", "setting": "[…], time 14 day", "value": 12, "unit": "s"}, {"measurement": "Plat", "setting": "[…], time 14 day", "value": 94.8, "unit": "x10_4/uL"}, {"measurement": "RBC", "setting": "[…], time 14 day", "value": 614.6, "unit": "x10_4/ul"}, {"measurement": "Ret", "setting": "[…], time 14 day", "value": 4.9, "unit": "%"}, {"measurement": "WBC", "setting": "[…], time 14 day", "value": 108.6, "unit": "x10_2/uL"}, {"measurement": "APTT", "setting": "[…], time 28 day", "value": 16.1, "unit": "s"}, {"measurement": "Bas", "setting": "[…], time 28 day", "value": 0, "unit": "%"}, {"measurement": "Eos", "setting": "[…], time 28 day", "value": 1.2, "unit": "%"}, {"measurement": "Fbg", "setting": "[…], time 28 day", "value": 220.8, "unit": "mg/dL"}]}
